# Results from patent publication US9028845B2, “Chimeric immunomodulatory compounds and methods of using the same-IV” (Dynavax Technologies Corporation, priority 2001, dated 2015).
# System: human PBMCs
# Test: Human PBMC cytokine response assay (IFN-γ and IFN-α in cell-free medium by ELISA), with or without cPLGA;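 for IFN-α (pg/ml) mean: 20 µg/mL compound for 24 hours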;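 for IFN-γ (pg/ml) mean: 20 µg/mL compound for 24 hours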
# Type: cell-based
# Conditions: for IFN-a / IFN-g / IFN-a mean / IFN-g mean: Table 25; for IFN-a mean / IFN-g mean: mean of donors 28250-28253; for IFN-γ (pg/ml) 28065: donor 28065 (high background), 1000 = outside assay limits; for IFN-α (pg/ml) 28065: donor 28065; for IFN-α (pg/ml) 28066 / IFN-γ (pg/ml) 28066: donor 28066; for IFN-α (pg/ml) 28067 / IFN-γ (pg/ml) 28067: donor 28067; for IFN-α (pg/ml) 28068 / IFN-γ (pg/ml) 28068: donor 28068; for immunomodulatory activity (IFN-γ / IFN-α secretion), in words: used alone (no cPLGA); for IFN-α mean / IFN-γ mean: mean of donors
# [1] = donor 28250, polynucleotides/spacers at amounts equivalent to the CIC, spacers alone 9 uM
# [2] = 20 ug/ml, 24 h, + PLGA = premixed with 100 μg/ml cPLGA
# [3] = mean of Donors 3-4, 20 μg/ml, 24 h
# [4] = mean of donors 28065-28068, 20 ug/ml, 24 h, + PLGA = premixed with 100 μg/ml cPLGA
# [5] = mean of donors 110, 112, 119, 120, Table 14
# [6] = mean of donors 28218-28221, 20 μg/ml, 24 h
substance,measurement,setting,value
"5′-ACGTTCG-3′ [Compound P-3, reference compound]",IFN-α (pg/ml) Donor 3,"20 μg/ml, 24 h",0 pg/mL
same,IFN-γ (pg/ml) Donor 3,"20 μg/ml, 24 h",1 pg/mL
same,IFN-α (pg/ml) Donor 4,"20 μg/ml, 24 h",32 pg/mL
same,IFN-γ (pg/ml) Donor 4,"20 μg/ml, 24 h",3 pg/mL
same,IFN-a,donor 28250,16 pg/mL
same,IFN-g,[1],32 pg/mL
same,IFN-a,donor 28251,29 pg/mL
same,IFN-g,donor 28251,21 pg/mL
same,IFN-a,donor 28252,38 pg/mL
same,IFN-g,donor 28252,72 pg/mL
same,IFN-a,donor 28253,31 pg/mL
same,IFN-g,donor 28253,1 pg/mL
same,IFN-a mean,,29 pg/mL
same,IFN-g mean,,31 pg/mL
same,IFN-γ (pg/ml) 28065,[2],94 pg/mL
same,IFN-α (pg/ml) 28065,[2],0 pg/mL
same,IFN-α (pg/ml) 28066,[2],0 pg/mL
same,IFN-γ (pg/ml) 28066,[2],27 pg/mL
same,IFN-α (pg/ml) 28067,[2],5 pg/mL
same,IFN-γ (pg/ml) 28067,[2],1 pg/mL
same,IFN-α (pg/ml) 28068,[2],0 pg/mL
same,IFN-γ (pg/ml) 28068,[2],0 pg/mL
same,IFN-α (pg/ml) mean,[3],16 pg/mL
same,IFN-γ (pg/ml) mean,[3],2 pg/mL
same,IFN-α (pg/ml) mean,[4],1 pg/mL
same,IFN-γ (pg/ml) mean,[4],31 pg/mL
same,"immunomodulatory activity (IFN-γ / IFN-α secretion), in words",,did not have immunomodulatory activity
5′-ACGTTCG-3′-HEG-5′-AGATGAT-3′-HEG-5′-TCGTCGA-3′ [Compound C-58],IFN-α,"Table 13, donor 28156",13 pg/mL
same,IFN-γ,"Table 13, donor 28156",404 pg/mL
same,IFN-α,"Table 13, donor 28157",30 pg/mL
same,IFN-γ,"Table 13, donor 28157",288 pg/mL
same,IFN-α,"Table 13, donor 28158",29 pg/mL
same,IFN-γ,"Table 13, donor 28158",59 pg/mL
same,IFN-α,"Table 13, donor 28159",23 pg/mL
same,IFN-γ,"Table 13, donor 28159",84 pg/mL
same,IFN-α mean,Table 13,24 pg/mL
same,IFN-γ mean,Table 13,209 pg/mL
5′-ACGTTCG-3′-HEG-5′-TCGTCGA-3′-HEG-5′-AGATGAT-3′ [Compound C-57],IFN-α,"Table 13, donor 28156",5 pg/mL
same,IFN-γ,"Table 13, donor 28156",419 pg/mL
same,IFN-α,"Table 13, donor 28157",52 pg/mL
same,IFN-γ,"Table 13, donor 28157",323 pg/mL
same,IFN-α,"Table 13, donor 28158",61 pg/mL
same,IFN-γ,"Table 13, donor 28158",67 pg/mL
same,IFN-α,"Table 13, donor 28159",42 pg/mL
same,IFN-γ,"Table 13, donor 28159",262 pg/mL
same,IFN-α mean,Table 13,40 pg/mL
same,IFN-γ mean,Table 13,268 pg/mL
same,"immunomodulatory activity (IFN-γ / IFN-α secretion), in words",,somewhat more active than C-58
"5′-AGATGAT-3′ [Compound P-4, reference compound]",IFN-α (pg/ml) Donor 3,"20 μg/ml, 24 h",0 pg/mL
same,IFN-γ (pg/ml) Donor 3,"20 μg/ml, 24 h",0 pg/mL
same,IFN-α (pg/ml) Donor 4,"20 μg/ml, 24 h",58 pg/mL
same,IFN-γ (pg/ml) Donor 4,"20 μg/ml, 24 h",3 pg/mL
same,IFN-a,donor 28250,16 pg/mL
same,IFN-g,[1],72 pg/mL
same,IFN-a,donor 28251,16 pg/mL
same,IFN-g,donor 28251,1 pg/mL
same,IFN-a,donor 28252,16 pg/mL
same,IFN-g,donor 28252,43 pg/mL
same,IFN-a,donor 28253,16 pg/mL
same,IFN-g,donor 28253,1 pg/mL
same,IFN-a mean,,16 pg/mL
same,IFN-g mean,,29 pg/mL
same,IFN-γ (pg/ml) 28065,[2],93 pg/mL
same,IFN-α (pg/ml) 28065,[2],0 pg/mL
same,IFN-α (pg/ml) 28066,[2],0 pg/mL
same,IFN-γ (pg/ml) 28066,[2],1 pg/mL
same,IFN-α (pg/ml) 28067,[2],9 pg/mL
same,IFN-γ (pg/ml) 28067,[2],1 pg/mL
same,IFN-α (pg/ml) 28068,[2],0 pg/mL
same,IFN-γ (pg/ml) 28068,[2],1 pg/mL
same,IFN-α (pg/ml) mean,[3],29 pg/mL
same,IFN-γ (pg/ml) mean,[3],1 pg/mL
same,IFN-α (pg/ml) mean,[4],2 pg/mL
same,IFN-γ (pg/ml) mean,[4],24 pg/mL
same,"immunomodulatory activity (IFN-γ / IFN-α secretion), in words",,did not have immunomodulatory activity
5′-AGATGAT-3′-HEG-5′-ACGTTCG-3′-HEG-5′-TCGTCGA-3′ [Compound C-60],IFN-α,"Table 13, donor 28156",5 pg/mL
same,IFN-γ,"Table 13, donor 28156",304 pg/mL
same,IFN-α,"Table 13, donor 28157",22 pg/mL
same,IFN-γ,"Table 13, donor 28157",209 pg/mL
same,IFN-α,"Table 13, donor 28158",3 pg/mL
same,IFN-γ,"Table 13, donor 28158",26 pg/mL
same,IFN-α,"Table 13, donor 28159",1 pg/mL
same,IFN-γ,"Table 13, donor 28159",38 pg/mL
same,IFN-α mean,Table 13,8 pg/mL
same,IFN-γ mean,Table 13,144 pg/mL
5′-AGATGAT-3′-HEG-5′-TCGTCGA-3′-HEG-5′-ACGTTCG-3′ [Compound C-59],IFN-α,"donor 110, Table 14",2 pg/mL
same,IFN-γ,"donor 110, Table 14",256 pg/mL
same,IFN-α,"donor 112, Table 14",6 pg/mL
same,IFN-γ,"donor 112, Table 14",52 pg/mL
same,IFN-α,"donor 119, Table 14",2 pg/mL
same,IFN-γ,"donor 119, Table 14",28 pg/mL
same,IFN-α,"donor 120, Table 14",2 pg/mL
same,IFN-γ,"donor 120, Table 14",40 pg/mL
same,IFN-α (pg/ml) mean,[5],3 pg/mL
same,IFN-γ (pg/ml) mean,[5],94 pg/mL
"5′-ATCTCGA-3′ [Compound P-5, reference compound]",IFN-α (pg/ml) Donor 3,"20 μg/ml, 24 h",0 pg/mL
same,IFN-γ (pg/ml) Donor 3,"20 μg/ml, 24 h",0 pg/mL
same,IFN-α (pg/ml) Donor 4,"20 μg/ml, 24 h",57 pg/mL
same,IFN-γ (pg/ml) Donor 4,"20 μg/ml, 24 h",3 pg/mL
same,IFN-α (pg/ml) mean,[3],29 pg/mL
same,IFN-γ (pg/ml) mean,[3],2 pg/mL
same,"immunomodulatory activity (IFN-γ / IFN-α secretion), in words",,did not have immunomodulatory activity
5′-CGTTCGA-3′-HEG-5′-CGTTCGA-3′-HEG-5′-CGTTCGA-3′ [Compound C-52],IFN-α,"Table 10, donor 28042",0 pg/mL
same,IFN-γ,"Table 10, donor 28042",238 pg/mL
same,IFN-α,"Table 10, donor 28043",3 pg/mL
same,IFN-γ,"Table 10, donor 28043",214 pg/mL
same,IFN-α,"Table 10, donor 28044",35 pg/mL
same,IFN-γ,"Table 10, donor 28044",212 pg/mL
same,IFN-α,"Table 10, donor 28045",48 pg/mL
same,IFN-γ,"Table 10, donor 28045",28 pg/mL
same,IFN-α mean,Table 10,22 pg/mL
same,IFN-γ mean,Table 10,173 pg/mL
same,IFN-α,"donor 110, Table 14",2 pg/mL
same,IFN-γ,"donor 110, Table 14",472 pg/mL
same,IFN-α,"donor 112, Table 14",2 pg/mL
same,IFN-γ,"donor 112, Table 14",48 pg/mL
same,IFN-α,"donor 119, Table 14",292 pg/mL
same,IFN-γ,"donor 119, Table 14",40 pg/mL
same,IFN-α,"donor 120, Table 14",2 pg/mL
same,IFN-γ,"donor 120, Table 14",28 pg/mL
same,IFN-α (pg/ml) mean,[5],75 pg/mL
same,IFN-γ (pg/ml) mean,[5],147 pg/mL
"5′-GsGs-3′-C3-5′-TCGTGC-3′-C3-5′-ATCGAT-3′-C3-5′-GCACGA-3′-C3-5′-GGsGsGsGsG-3′ (s = phosphorothioate linkages, otherwise linkages are phosphodiester) [Compound C-85]",IFN-α,"Table 11, donor 28042",0 pg/mL
same,IFN-γ,"Table 11, donor 28042",17 pg/mL
same,IFN-α,"Table 11, donor 28043",0 pg/mL
same,IFN-γ,"Table 11, donor 28043",13 pg/mL
same,IFN-α,"Table 11, donor 28044",28 pg/mL
same,IFN-γ,"Table 11, donor 28044",315 pg/mL
same,IFN-α,"Table 11, donor 28045",24 pg/mL
same,IFN-γ,"Table 11, donor 28045",134 pg/mL
same,IFN-α mean,Table 11,13 pg/mL
same,IFN-γ mean,Table 11,120 pg/mL
"5′-GsGs-3′-C3-5′-TGC-3′-C3-5′-ATCGAT-3′-C3-5′-GCA-3′-C3-5′-GGsGsGsGsG-3′ (s = phosphorothioate linkages, otherwise linkages are phosphodiester) [Compound C-84]",IFN-α,"Table 11, donor 28042",0 pg/mL
same,IFN-γ,"Table 11, donor 28042",29 pg/mL
same,IFN-α,"Table 11, donor 28043",0 pg/mL
same,IFN-γ,"Table 11, donor 28043",23 pg/mL
same,IFN-α,"Table 11, donor 28044",5 pg/mL
same,IFN-γ,"Table 11, donor 28044",69 pg/mL
same,IFN-α,"Table 11, donor 28045",222 pg/mL
same,IFN-γ,"Table 11, donor 28045",232 pg/mL
same,IFN-α mean,Table 11,57 pg/mL
same,IFN-γ mean,Table 11,88 pg/mL
"5′-GsGsGsGs-3′-C3-5′-ATCGAT-3′-C3-5′-TGATGCATCA-3′-C3-5′-ATCGAT-3′-C3-5′-GsGsGsGsGsG-3′ (s = phosphorothioate linkages, otherwise linkages are phosphodiester) (TGATGCATCA is SEQ ID NO: 105) (listed as DNA, chemistry not fully specified) [Compound C-87]",IFN-a (pg/ml) 28218,"donor 28218, 20 μg/ml, 24 h",3075 pg/mL
same,IFN-g (pg/ml) 28218,"donor 28218, 20 μg/ml, 24 h",83 pg/mL
same,IFN-a (pg/ml) 28219,"donor 28219, 20 μg/ml, 24 h",32 pg/mL
same,IFN-g (pg/ml) 28219,"donor 28219, 20 μg/ml, 24 h",24 pg/mL
same,IFN-a (pg/ml) 28220,"donor 28220, 20 μg/ml, 24 h",4269 pg/mL
same,IFN-g (pg/ml) 28220,"donor 28220, 20 μg/ml, 24 h",38 pg/mL
same,IFN-a (pg/ml) 28221,"donor 28221, 20 μg/ml, 24 h",265 pg/mL
same,IFN-g (pg/ml) 28221,"donor 28221, 20 μg/ml, 24 h",977 pg/mL
same,IFN-a (pg/ml) mean,[6],1910 pg/mL
same,IFN-g (pg/ml) mean,[6],281 pg/mL
same,"IFN-α induction, in words",used alone,remarkable induction of IFN-α
